Literature values, collected in patent US20230000905A1, “IODINE AND POLYOL COMPOSITION, METHOD, AND USE” (priority 2020, published 2023).

System: rhinovirus
Conditions: molecular iodine at the tested concentrations

II [molecular iodine]
time to inactivate rhinovirus: 30 s
